Laboratory results published in paper PMC10535741, “Styrylpyridinium Derivatives for Fluorescent Cell Imaging” (Pharmaceuticals, 2023).

Legend:
BMDMs = assay: Nitric oxide production of pre-stained macrophages polarised to M1 phenotype (Griess test); type: cell-based, mouse; details: after 2 days activation with IFNγ and PAM3SCK4; 5-50 μM 6e
Procedure: The impact of SP compound 6e on the BMDMs’ functional characteristics was also assessed by performing cell differentiation into the M1 phenotype in the presence of compound 6e. The BMDMs were treated with 5–50 μM compound 6e and the cell medium was replaced with a macrophage differentiation medium containing recombinant mouse interferon-gamma (IFNγ) and the TLR2/1 ligand PAM3SCK4 to ensure M1 polarisation. Activated cells express proinflammatory molecules (cytokines and chemokines), as well as nitric oxide (NO) as the main features of their proinflammatory M1-like macrophage phenotype. To verify the NO level in cell culture media, nitrites, as nitric oxide oxidation products, were measured by the standard Griess test. […]
For polarisation of macrophages to the pro-inflammatory M1 phenotype, the BMDM cells stained in a 12-well plate were used. […] After two days of activation, the nitric oxide levels (as a main signal of M1 polarisation) were measured in cell supernatants of activated (M1) and non-activated (M0) cells. The amount of nitric oxide was determined via a nitric oxide assay kit (Cat. No. EMSNO; Invitrogen). Briefly, 50 µL of cell culture media was collected from each well, clarified by centrifugation, and used for NO quantification. The nitrite standards provided by the kit were used for standard curve generation and NO quantification. […]

BHK-21 cells = assay: Cell passaging assay, flow cytometry on day 6; type: cell-based, Syrian hamster; details: BHK-21, passaged twice, six days of culture; 25 μM 6e or 1 μM Deep Red
Procedure: In order to assess the stability of staining after prolonged cell culture, the stained BHK-21 cells (Day 1) were passaged twice (Days 2 and 4) and cultured for six days in total (Day 6, Figure 4). On day 6, the cells were collected and analysed by flow cytometry. […] It can be concluded that, in contrast to the Deep Red cell tracker, SP compound 6e effectively stains cells and can be used for up to 6 days of cell culture.
For the cell passaging, on day 0, BHK-21 cells were plated on a 6-well plate with a seeding density of 1.5 × 10^5 cells per well. On day 1, the cells were stained with 25 μM compound 6e or 1 μM CellTracker™ Deep Red dye as described above. […] On day 6, cells were collected for flow cytometry analysis. The cells were kept at 4 °C and analysed as described above.

CCCCCCCCCCCCCCCC[n+]1ccc(C=CC=Cc2cc3c4c(c2)CCCN4CCC3)cc1.[Br-] [Compound 6e, 1-hexadecyl-4-(4-(2,3,6,7-tetrahydro-1H,5H-pyrido[3,2,1-ij]quinolin-9-yl)buta-1,3-dien-1-yl)pyridin-1-ium bromide]
NO production of stained BMDMs (BMDMs): up to 21.5 µM
positive fluorescent cells on day 6 (BHK-21 cells): 15.0 ± 0.7%
